The results in this text go back to patent publication US20240156790A1, “COMPOUNDS, COMPOSITIONS, AND METHODS FOR MODULATING FERROPTOSIS AND TREATING EXCITOTOXIC DISORDERS” (THE TRUSTEES OF COLUMBIA UNIVERSITY IN THE CITY OF NEW YORK, priority 2018, published 2024).

Data set [1] deals with N27 rat dopaminergic cells. Put plainly: Suppression of ferroptosis induced by RSL3 in N27 cells (CellTiter-Glo viability). In kind it is cell-based.
Data set [2] in a line: TH-2-31, TH-4-55-2, TH-4-67 PK Study (IP, IV, PO; plasma and brain). In kind it is in vivo, C57BL/6 mice. The note with it: for Cmax brain (nM) / concentration in brain following IV administration (rapid accumulation) / half-life / concentration at 24 h / Cmax: 20 mg/kg; for half-life / concentration at 24 h / Cmax: both sexes, C57BL/6, mouse; for half-life: read-out: in vivo brain t1/2; for brain penetrance / accumulation in brain over plasma, in words: mouse, in vivo; for stability / accumulation in plasma in vivo, in words: up to 24 hours. As for the experimental part:
C57BL/6 mice (8-weeks of age and ˜25 g weight) were weighed before injection and divided into groups of two male and female mice per cage. Compound was dissolved in 5% DMSO/95% of 1:1 [(65% v/v of 25% w/v 2-hydroxypropyl-3-cyclodextrin (Cayman Chemical) dissolved in 20% EtOH, 30% v/v Poly(ethylene glycol)-400 (Sigma Aldrich 202398), 5% v/v Tween 80 (Fluka 59924)):MilliQ water] to create a 2 mg/mL solution. The same formulation without compound was used as a vehicle control. The solution was sterilized using a […] Steriflip filter unit (Thomas Scientific 1189Q46). Mice were dosed IP, IV, and PO routes of administration and euthanized by CO2 asphyxiation for 3 min at 0, 1, 2, 4, 8, and 24 h after administration. To ensure that the vehicle was well-tolerated 4 mice were treated with vehicle and euthanized 4 h after administration. ˜0.5 mL of blood was collected via cardiac puncture and immediately put in K3 EDTA microtubes ([…] 41.1504.105) and kept on ice. Organs were harvested, placed in Eppendorf tubes, and frozen on dry ice. Blood samples were centrifuged for 10 min at 2,100×g at 4° C., then plasma was transferred to a clean tube and frozen on dry ice. Organ samples were weighed and placed in hard tissue homogenizing tubes (Omni International 19-628) and a volume of DEPC-treated nuclease-free water (IBI Scientific IB42200) was added to make a 500 mg/mL solution and homogenized using the Omni Bead Ruptor 4 at speed 5 for 30 seconds. Compound was extracted from plasma or organ homogenate by adding 900 μL acetonitrile to 100 μL plasma or organ homogenate. Samples were mixed by vortexing and allowed to extract overnight at 4° C. prior to mixing for at least 5 min by rotating at room temperature, vortexing, and sonicating for at least 30 second prior to centrifugation for 10 min at 4,000×g and 4° C. The supernatant was then transferred to a glass vial and analyzed by UPLC-MS described below. The concentration of each analog was determined against a standard curve with a nonlinear fit and the data plot in GraphPad Prism 9 and fit with a one phase decay.
Samples from animal studies were analyzed via UPLC-MS using a Waters Xevo G2-Xs QTof Mass spectrometer equipped with an Acquity UPLC. Chromatographic separation was carried out at 50° C. on a Acquity UPLC BEH C18 column (1.7 μm, 2.1 mm×50 mm, pore size 130 Å) over a 4.5 min gradient elution. The flowrate was held constant at 0.8 mL/min. Mobile phase A consisted of water and mobile phase B consisted of ACN both containing 0.1% formic acid. After injection, the gradient was held at 50% A for 0.25 min. For the next minute, the gradient was ramped in a linear fashion to 100% B and held at this composition for 0.5 min. The eluent composition returned to the initial condition in 0.01 min and the column was re-equilibrated for 2.74 min before the next injection. Injection volumes were 0.5 μL (TH-2-31 40 mg/kg) and 1 μL for all other conditions. The Xevo G2-Xs was operated in positive electrospray ionization (ESI) mode. A capillary voltage and sampling cone voltage of 0.5 kV and 30 V were used. The source and desolvation temperatures were kept at 120° C. and […], respectively. Nitrogen was used as the desolvation gas with a flowrate of 750 L/hr. The protonated molecular ion of leucine encephalin ([M+H]^+, m/z 556.2771 was used as a lock mass for mass accuracy and reproducibility. Leucine enkephalin was introduced to the lock mass at a concentration of 2 ng/mL (50% ACN containing 0.1% formic acid), and a flow rate of […]. To avoid signal saturation, the signal transmission was attenuated to <10%, based off the signal intensity of the highest standard concentration for the duration of the run. The data was collected over the mass range m/z 50 to 1200 Da with an acquisition time of 0.1 seconds per scan. The retention time for each analog is detailed below. […]

Data set [3] relates to HT-1080 cells. As to the kind of experiment: Cell viability assays in HT-1080 cells, ferroptosis induced by IKE or RSL3 (Example 8). Type of data set: cell-based. To be noted: for IC50: Homo sapiens, HT-1080, 48 h.
[4] abbreviates: Rattus norvegicus, N27, 24 h, 20 nM RSL3, 24 hours, separate experiment I, read-out: IC50 I.
Where [5] appears, read: Rattus norvegicus, N27, 24 h, 20 nM RSL3, 24 hours, separate experiment II, read-out: IC50 II.
The mark [6] stands for this setting: Rattus norvegicus, N27, 24 h, 20 nM RSL3, 24 hours, separate experiment III, read-out: IC50 III.
[7] abbreviates: Rattus norvegicus, N27, 24 h, Table 3, ^d 24 hr treatment, 1,000 cells/well seeded, read-out: IC50.
[8] abbreviates: Rattus norvegicus, N27, 24 h, Table 13, 20 nM RSL3, treated for 24 hours^d, read-out: IC50.
Setting [9] is: Rattus norvegicus, N27, 24 h, RSL3 20 nM, 24 hours of treatment, read-out: IC50.
Setting [10] is: Rattus norvegicus, N27, Table 7, value used for Cmax/IC50, read-out: IC50.
Where [11] appears, read: plasma, all routes of administration, read-out: concentration in plasma 24 hours after administration.
The mark [12] stands for this setting: ^b 2 μM IKE, 48 hours, 1,000 cells/well.
The mark [13] stands for this setting: ^c 0.2 μM RSL3, 48 hours, 1,000 cells/well.

“Also recorded” adds a separate entry of the source. Read-outs that look alike come from different tables or passages of the source.

Consider `Cc1noc(-c2cnc(NC3CCCCC3)c(NC3CCCCC3)c2)n1` [TH-2-31, N^2,N^3-dicyclohexyl-5-(3-methyl-1,2,4-oxadiazol-5-yl)pyridine-2,3-diamine], for which, in data set [1] (20 nM RSL3), the “potency relative to fer-1, in words” value was “less potent than fer-1”. Moreover, the half-maximal inhibitory concentration (IC50) in data set [1] (setting [4]) was 2.6 nM; in data set [1] (setting [5]), 1.4 nM; in data set [1] (setting [6]) it was 6.1 nM; in data set [1] (setting [7]) it was 3.4 nM; in data set [1] (setting [8]), 3.4 nM; in data set [1] (setting [9]), below 10 nM. For the same molecule, the IC50 in data set [1] (setting [10]) is 3.37 nM; in data set [3] (setting [12]), 5.6 nM; in data set [3] (setting [13]), 4.8 nM. Also, the “Cmax brain/ IC50” value in data set [2] (IP) is listed as 633; in data set [2] (IV) it was 99,335; in data set [2] (PO), 353. For the same molecule, the figures for the “Cmax brain (nM)” value in data set [2] (IP), in data set [2] (IV) and in data set [2] (PO) were 2,133 nM, 334,759 nM and 1,190 nM, respectively. In addition, the “concentration in brain following IV administration (rapid accumulation)” value (“concentration … (rapid accumulation)” below) in data set [2] (IV) is recorded as “greater than 300 μM”. The half-life in data set [2] (brain, ip, R.O.A. IP) was above 8 h; in data set [2] (brain, iv, R.O.A. IV), below 1 h; in data set [2] (brain, po, R.O.A. PO), above 24 h. Also, the concentration at 24 h is 10 µM in data set [2] (brain, iv, read-out: concentration in brain 24 hours after administration) and above 0.5 µM in data set [2] (setting [11]). Besides, the Cmax in data set [2] (plasma, ip) is 50.9 µM; in data set [2] (plasma, iv), 25.8 µM; in data set [2] (plasma, po) it was 2.24 µM. For the same molecule, the “brain penetrance / accumulation in brain over plasma, in words” value in data set [2] was “preferentially accumulate in brain over plasma for all time-points following IV administration”. The “potency relative to fer-1 at suppressing ferroptosis, in words” value in data set [3] was “potencies greater than fer-1”.

Consider `Cc1noc(-c2ccc(NC3CCCCC3)c(NC3CCCCC3)c2)n1` [PHB4082, N1,N2-dicyclohexyl-4-(3-methyl-1,2,4-oxadiazol-5-yl)benzene-1,2-diamine], for which, in data set [1] (setting [8]), the concentration for half-maximal inhibition (IC50) amounted to 2.6 nM. Besides, the “potency relative to fer-1 at suppressing ferroptosis, in words” value in data set [3] is given as “more potent than fer-1”.

Regarding `CCOC(=O)c1ccc(NC2CCCCC2)c(N)c1` [Fer-1, Ferrostatin-1, reference compound], the concentration for half-maximal inhibition (IC50) in data set [1] (Rattus norvegicus, N27, Table 3, ^d 24 hr treatment, 1,000 cells/well seeded, read-out: IC50) amounted to 3.2 nM; in data set [1] (Rattus norvegicus, N27, Table 3, ^e 48 hr treatment, 1,000 cells/well seeded, read-out: IC50), 12.5 nM; in data set [3] (setting [12]), 9.1 nM; in data set [3] (setting [13]), 3.6 nM.

For `Cc1noc(-c2cnc(NC3CCCC3)c(NC3CCCC3)c2)n1` [TH-4-67, N^2,N^3-dicyclopentyl-5-(3-methyl-1,2,4-oxadiazol-5-yl)pyridine-2,3-diamine], the “potency relative to fer-1, in words” value in data set [1] (20 nM RSL3) is “more potent than fer-1”. The half-inhibitory concentration (IC50) is 1.5 nM in data set [1] (setting [4]); 1.4 nM in data set [1] (setting [5]); 3.4 nM in data set [1] (setting [6]); 2.1 nM in data set [1] (setting [7]); 2.1 nM in data set [1] (setting [8]); 2.1 nM in data set [1] (setting [10]). In addition, the concentration giving a half-maximal response (EC50) in data set [1] (Rattus norvegicus, N27, text b573) was found to be 2 nM. The “Cmax brain/ IC50” value in data set [2] (IP) was 1,389; in data set [2] (IV), 24,820; in data set [2] (PO) it was 740. In addition, the “time present in plasma at μM concentrations” value is given as “up to 2 hours” in data set [2] (IP administration); “up to 1 hour” in data set [2] (PO and IV administration). The “Cmax brain (nM)” value was 2,916 nM in data set [2] (IP), 52,121 nM in data set [2] (IV) and 1,554 nM in data set [2] (PO). In addition, in data set [2] (IV), the “concentration … (rapid accumulation)” value is above 50 µM. For the same molecule, the concentration at 24 h is below 0.2 µM in data set [2] (brain, all routes of administration, read-out: concentration in brain 24 hours post administration) and below 0.025 µM in data set [2] (setting [11]). Moreover, the half-life in data set [2] (brain, iv, R.O.A. IV) is below 1 h. Also, the maximum concentration (Cmax) in data set [2] (plasma, ip) stood at 82.1 µM; in data set [2] (plasma, iv), 40.6 µM; in data set [2] (plasma, po) it was 1.77 µM. Also, the “stability / accumulation in plasma in vivo, in words” value in data set [2] is recorded as “accumulated the least; also recorded: the least stable”.

Turning to `CCC(CC)Nc1cc(-c2nc(C)no2)cnc1NC1CCCCC1` [TH-4-55-2, N^2-cyclohexyl-5-(3-methyl-1,2,4-oxadiazol-5-yl)-N^3-(pentan-3-yl)pyridine-2,3-diamine], the “potency relative to fer-1, in words” value in data set [1] (20 nM RSL3) is recorded as “more potent than fer-1”. Besides, the 50% inhibitory concentration (IC50) in data set [1] (setting [4]) is 0.8 nM; in data set [1] (setting [5]), 1 nM; in data set [1] (setting [6]), 4.9 nM; in data set [1] (setting [7]), 2.2 nM; in data set [1] (setting [8]), 2.2 nM; in data set [1] (setting [9]), below 10 nM. Besides, the half-inhibitory concentration (IC50) in data set [1] (setting [10]) worked out at 2.23 nM. For the same molecule, the “Cmax brain/ IC50” value is 1,765 in data set [2] (IP), 35,567 in data set [2] (IV) and 632 in data set [2] (PO). The “Cmax brain (nM)” value in data set [2] (IP) is listed as 3,936 nM; in data set [2] (IV) it was 79,314 nM; in data set [2] (PO) it was 1,410 nM. For the same molecule, the “concentration … (rapid accumulation)” value in data set [2] (IV) was above 75 µM. Besides, in data set [2] (all routes of administration), the “time present in plasma at μM concentrations” value is on record as “up to 8 hours”. For the same molecule, the half-life in data set [2] (brain, ip, R.O.A. IP) was above 8 h; in data set [2] (brain, iv, R.O.A. IV) it was below 1 h; in data set [2] (brain, po, R.O.A. PO), above 24 h. Further, the concentration at 24 h in data set [2] (brain, other: IP and PO, IP and PO administration, read-out: concentration in brain 24 hours post administration) was above 1 µM; in data set [2] (setting [11]) it was above 0.8 µM. Further, the maximum concentration (Cmax) in data set [2] (plasma, ip) was found to be 63.8 µM; in data set [2] (plasma, iv) it was 32.1 µM; in data set [2] (plasma, po), 2.93 µM. In addition, in data set [2], the “brain penetrance / accumulation in brain over plasma, in words” value is reported as “preferentially accumulate in brain over plasma for all time-points following IV administration”. The “stability / accumulation in plasma in vivo, in words” value in data set [2] was “accumulated the most”.
